Data set [1] can be described thus: Solubility in water at room temperature. Particulars: for solubility in distilled water: allowed to stand at room temperature, turbid or transparent tube (FIG. 7). In kind it is physicochemical. The method, then:
FIG. 7 is a photographic image showing trans-resveratrol-3-O-β-D-monoglucoside contained in the fraction showing a single peak detected in FIG. 1 (A), and trans-resveratrol-3-O-β-D-diglucoside contained in the fraction (a) in FIG. 1 (B), after they were dissolved in distilled water and allowed to stand at room temperature.

Data set [2] concerns 3T3 mouse fibroblasts. Nature of the data set: Rescue activity from cell death induced by hydrogen peroxide. It is filed as cell-based. Particulars: 10 μM for 3 hours, then hydrogen peroxide 15 μM, culture for 12 hours (FIG. 10). The method, then:
Subsequently, the cultured cells were fixed with 4% paraformaldehyde and stained with Hoechst. Cells in which aggregation in the cell nucleus was observed were determined to be cell death, and the percentage of cell death (vertical axis in the graph) was calculated.
An experiment was conducted to confirm the trans-resveratrol polysaccharide's rescue activity from cell death. RSV, 4M-RSV, and 3P-RSV were each added to a culture medium of 3T3 mouse fibroblasts so that the final concentration was 10 μM, and the fibroblasts were cultured with 5% carbon dioxide at 37° C. for 3 hours. Subsequently, hydrogen peroxide was added to the culture medium so that the final concentration was 15 μM, thereby inducing cell death.
After culture for 12 hours, cell death was determined in the same manner as in Example 1, and the percentage of cell death was calculated.

Data set [3] has as its system normal human three-dimensional epithelial tissue model MelanoDerm. Nature of the data set: Whitening effect: reduction in black areas in epithelial tissue models (MelanoDerm). It is filed as cell-based. On the procedure: An experiment was conducted to confirm the effect of suppressing the expression of NFκB, which is a transcription factor that induces inflammation. Epithelial tissue models were produced using a normal human three-dimensional epithelial tissue model production kit MelanoDerm (MEL-300; Kurabo). RSV was added to the culture media so that the final concentration was 0 μM (Ctrl), 30 μM, 50 μM, and 100 μM, and the tissue models were cultured according to the manual of the kit. RNA in the skin tissue models was collected three weeks after the addition of RSV, and subjected to quantitative PCR analysis to measure the expression level of NFκB. […] Epithelial tissue models were produced using the above kit. RSV was added to the culture media so that the final concentration was 0 μM (Ctrl), 30 μM, 50 μM, and 100 μM, and the tissue models were cultured according to the manual of the kit. Photographic images of the epithelial tissue models were taken three weeks after the addition of RSV. The degree of reduction in black areas due to the addition of RSV was calculated using ImageJ image-analysis software, and the results were graphed. […] Epithelial tissue models were produced in the same manner as in Example 5. RSV, 4 M-RSV, and 3P-RSV were each added so that the final concentration was 50 μM, and the skin tissue models were observed.

Data set [4] relates to NFκB. The experiment in a line: Suppression of NFκB expression in epithelial tissue models (quantitative PCR). As to conditions: 30 μM, 50 μM and 100 μM, three weeks after addition (FIG. 11). In kind it is cell-based, human. The method, then: An experiment was conducted to confirm the effect of suppressing the expression of NFκB, which is a transcription factor that induces inflammation. Epithelial tissue models were produced using a normal human three-dimensional epithelial tissue model production kit MelanoDerm (MEL-300; Kurabo). RSV was added to the culture media so that the final concentration was 0 μM (Ctrl), 30 μM, 50 μM, and 100 μM, and the tissue models were cultured according to the manual of the kit. RNA in the skin tissue models was collected three weeks after the addition of RSV, and subjected to quantitative PCR analysis to measure the expression level of NFκB.

For `OCC1OC(OC2C(CO)OC(Oc3cc(O)cc(/C=C/c4ccc(O)cc4)c3)C(O)C2O)C(O)C(O)C1O` [trans-resveratrol-3-O-β-D-diglucoside, trans-Resveratrol-3-O-β-D-diglucoside], the “solubility in distilled water” value in data set [1] is listed as “easily dissolved in distilled water at room temperature”. The “water solubility at ordinary temperature” value in data set [1] (ordinary temperature, concluded from ethyl acetate/water partition and HPLC fractions) is given as “could acquire water solubility at ordinary temperature”.
Take `OCC1OC(Oc2cc(O)cc(/C=C/c3ccc(OC4OC(CO)C(OC5OC(CO)C(O)C(O)C5O)C(O)C4O)cc3)c2)C(O)C(O)C1O` [4M-RSV, trans-resveratrol-O-β-D-3-monoglucoside-4′-diglycoside]: in data set [2], the “rescue activity from cell death induced by hydrogen peroxide (percentage of cell death)” value is on record as “cell death almost equal to that of the case in which hydrogen peroxide was not added (Ctrl)”. In data set [3] (50 μM (FIG. 13)), the “degree of reduction in black areas per molecular unit of RSV (whitening effect)” value is reported as “significantly excellent whitening effect”.
Regarding `Oc1ccc(/C=C/c2cc(O)cc(O)c2)cc1` [RSV, Trans-resveratrol], the “expression level of NFκB” value in data set [4] is “suppressed the expression level of NFκB in the epithelial tissue models in a concentration-dependent manner”. In addition, the “reduction in black areas (whitening effect)” value in data set [3] (30 μM, 50 μM and 100 μM, three weeks after addition, ImageJ (FIG. 12)) is recorded as “reduced black areas in the epithelial tissue models in a concentration-dependent manner”.
With `OC[C@H]1O[C@@H](Oc2cc(O)cc(/C=C/c3ccc(O)cc3)c2)[C@H](O)[C@@H](O)[C@@H]1O` [trans-resveratrol-3-O-β-D-monoglucoside, trans-Resveratrol-3-O-β-D-glucopyranoside, reference compound], the “solubility in distilled water” value in data set [1] is reported as “not dissolved in distilled water at room temperature”.

(Values after patent publication US20180066005A1, “TRANS-RESVERATROL POLYSACCHARIDE, METHOD OF PRODUCING THE SAME, AND COMPOSITION COMPRISING THE SAME” (FAITH CO., LTD., priority 2013, published 2018).)
